US20170022171A1, “2,5-DISUBSTITUTED CYCLOPENTANECARBOXYLIC ACIDS AND THEIR USE” (Bayer Pharma Aktiengesellschaft, priority 2014, published 2017)

How the values were obtained:
Assay type in all cases: biochemical
mouse MMP-7 = molecular target: T1, mouse MMP-7 (Mus musculus, UniProt Q10738); test: In vitro mouse MMP-7 inhibition test
T1 construct: purchased R&D Systems 2967-MP
T1 sequence (Q10738 95-264): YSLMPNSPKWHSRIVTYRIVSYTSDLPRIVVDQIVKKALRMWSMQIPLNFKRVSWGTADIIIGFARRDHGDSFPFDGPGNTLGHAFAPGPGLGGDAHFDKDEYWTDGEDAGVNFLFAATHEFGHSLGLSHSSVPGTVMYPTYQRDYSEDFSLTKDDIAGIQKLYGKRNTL
Description: (§1) The MMP-mediated amidolytic cleavage of a suitable peptide substrate leads to an increase in fluorescent light here too. The signal intensity of the fluorescent light is directly proportional to the enzyme activity. The active concentration of a test compound at which half the enzyme is inhibited (50% signal intensity of the fluorescent light) is reported as the IC50 value.
(§2) Recombinant mouse MMP-7 (from R&D Systems, 2967-MP) is chemically activated in accordance with the manufacturer's instructions using APMA. 1 μl of the test compound to be analysed (as a solution in DMSO, suitable concentrations, for example, 1 nM to 30 μM) is pipetted into 24 μl of activated enzyme (final concentration, for example, 0.5 nM) in reaction buffer (50 mM Tris/HCl pH 7.5, 10 mM CaCl2, 150 mM NaCl, 0.05% Brij®-35) in a white 384-hole microtiter plate (MTP). The enzymatic reaction is started by adding the intramolecularly quenched Mca-Lys-Pro-Leu-Gly-Leu-Dpa(Dnp)-Ala-Arg-NH2 substrate (final concentration, for example, 5 μM; R&D Systems, ES-010), so as to result in a total test volume of 50 μl. The course of the MMP-7 reaction is measured by measuring the fluorescence intensity (excitation 320 nm, emission 410 nm) over a suitable period of time (for example over 120 min at a temperature of 32° C.).

mouse MMP-3 = molecular target: T2, mouse MMP-3 (Mus musculus, UniProt P28862); test: In vitro mouse MMP-3 inhibition test
T2 construct: purchased R&D Systems 548-MP
T2 sequence (P28862 100-477): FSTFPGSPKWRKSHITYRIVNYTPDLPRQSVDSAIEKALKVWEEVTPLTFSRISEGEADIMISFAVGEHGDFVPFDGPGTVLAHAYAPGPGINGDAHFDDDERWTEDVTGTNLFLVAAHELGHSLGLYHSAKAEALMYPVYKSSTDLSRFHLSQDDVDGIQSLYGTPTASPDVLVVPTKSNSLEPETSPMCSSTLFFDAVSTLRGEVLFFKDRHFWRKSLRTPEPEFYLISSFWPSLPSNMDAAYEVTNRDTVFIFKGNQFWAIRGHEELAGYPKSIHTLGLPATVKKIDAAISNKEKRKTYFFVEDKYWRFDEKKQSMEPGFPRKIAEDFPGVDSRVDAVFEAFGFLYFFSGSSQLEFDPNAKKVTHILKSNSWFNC
Description: as §1
as §2, with “MMP-3” for “MMP-7”, “548-MP)” for “2967-MP)”, “Mca-Arg-Pro-Lys-Pro-Val-Glu-Nval-Trp-Arg-Lys(Dnp)-NH2” for “Mca-Lys-Pro-Leu-Gly-Leu-Dpa(Dnp)-Ala-Arg-NH2”, “ES-002),” for “ES-010),”

mouse MMP-2 = molecular target: T3, mouse MMP-2 (Mus musculus, UniProt P33434); test: In vitro mouse MMP-2 inhibition test
T3 construct: purchased R&D Systems 924-MP
T3 sequence (P33434 110-662): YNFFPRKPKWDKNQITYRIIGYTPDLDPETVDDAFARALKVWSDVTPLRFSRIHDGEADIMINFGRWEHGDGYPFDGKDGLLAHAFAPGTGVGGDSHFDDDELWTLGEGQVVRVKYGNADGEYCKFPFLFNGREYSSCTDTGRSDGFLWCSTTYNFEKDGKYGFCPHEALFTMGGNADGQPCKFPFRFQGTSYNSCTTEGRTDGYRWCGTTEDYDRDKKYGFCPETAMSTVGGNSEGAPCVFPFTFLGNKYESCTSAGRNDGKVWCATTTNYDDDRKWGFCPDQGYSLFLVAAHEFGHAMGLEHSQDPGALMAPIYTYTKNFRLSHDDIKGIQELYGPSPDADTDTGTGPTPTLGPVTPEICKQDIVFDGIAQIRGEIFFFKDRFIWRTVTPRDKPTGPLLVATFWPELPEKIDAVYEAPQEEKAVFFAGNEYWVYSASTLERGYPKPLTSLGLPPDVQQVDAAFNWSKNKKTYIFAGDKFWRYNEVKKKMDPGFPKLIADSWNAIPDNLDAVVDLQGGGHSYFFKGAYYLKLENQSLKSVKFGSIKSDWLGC
Description: as §1
Recombinant mouse MMP-2 (from R&D Systems, 924-MP) is chemically activated in accordance with the manufacturer's instructions using APMA. 1 μl of the test compound to be analysed (as a solution in DMSO, suitable concentrations, for example, 1 nM to 30 μM) is pipetted into 24 μl of activated enzyme (final concentration, for example, 0.1 nM) in reaction buffer (50 mM Tris/HCl pH 7.5, 10 mM CaCl2, 150 mM NaCl, 0.05% Brij®-35) in a white 384-hole microtiter plate (MTP). The enzymatic reaction is started by adding the intramolecularly quenched Mca-Pro-Leu-Gly-Leu-Dpa(Dnp)-Ala-Arg-NH2 substrate (final concentration, for example, 10 μM; R&D Systems, ES-001), so as to result in a total test volume of 50 The course of the MMP-2 reaction is measured by measuring the fluorescence intensity (excitation 320 nm, emission 410 nm) over a suitable period of time (for example over 120 min at a temperature of 32° C.).

mouse MMP-8 = molecular target: T4, mouse MMP-8 (Mus musculus, UniProt O70138); test: In vitro mouse MMP-8 inhibition test
T4 construct: purchased R&D Systems 2904-MP
T4 sequence (O70138 101-465): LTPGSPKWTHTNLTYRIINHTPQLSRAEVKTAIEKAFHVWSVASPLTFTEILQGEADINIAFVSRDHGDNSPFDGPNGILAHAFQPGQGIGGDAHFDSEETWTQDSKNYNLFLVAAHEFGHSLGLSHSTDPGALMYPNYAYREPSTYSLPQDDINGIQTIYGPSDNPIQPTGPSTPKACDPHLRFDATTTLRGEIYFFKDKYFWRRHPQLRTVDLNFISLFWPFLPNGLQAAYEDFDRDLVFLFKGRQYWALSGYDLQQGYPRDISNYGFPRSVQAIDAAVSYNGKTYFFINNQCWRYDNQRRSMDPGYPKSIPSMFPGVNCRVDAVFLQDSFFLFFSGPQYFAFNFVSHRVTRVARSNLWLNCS
Description: as §1
as §2, with “MMP-8” for “MMP-7”, “2904-MP)” for “2967-MP)”, “2” for “0.5”

Compound | IC50 (mouse MMP-7) [nM] | IC50 (mouse MMP-3) [nM] | IC50 (mouse MMP-2) [nM] | IC50 (mouse MMP-8) [nM]
Cc1ccc2nnn(C[C@@H]3CC[C@H](C(=O)c4ccc(OCc5cccc(Cl)c5)cc4)[C@H]3C(=O)O)c(=O)c2c1 (racemic) [Example 103, (+/−)-(1RS,2RS,5SR)-2-{4-[(3-Chlorobenzyl)oxy]benzoyl}-5-[(6-methyl-4-oxo-1,2,3-benzotriazin-3(4H)-yl)methyl]cyclopentanecarboxylic acid] | 28 | 1100 | 370 | 270
(+)-(1RS,2SR,5RS)-2-{[4-Oxo-6-(trifluoromethyl)-1,2,3-benzotriazin-3(4H)-yl]methyl}-5-{4-[(2-phenylethy)sulphanyl]benzoyl}cyclopentanecarboxylic acid [Example 83] | 82 | 5900 | 8100 | 1100
O=C(O)[C@@H]1[C@@H](Cn2nnc3ccc(C(F)(F)F)cc3c2=O)CC[C@H]1C(=O)c1ccc(SCc2ccccc2)cc1 (single isomer, unassigned) [Example 75, (+)-(1RS,2RS,5SR)-2-[4-(Benzylsulphanyl)benzoyl]-5-{[4-oxo-6-(trifluoromethyl)-1,2,3-benzotriazin-3(4H)-yl]methyl}cyclopentanecarboxylic acid] | 120 | 5900 | 4200 | 410
Cc1ccc2nnn(C[C@H]3CC[C@@H](C(=O)c4ccc(OCc5cccc(OC(F)(F)F)c5)cc4)[C@@H]3C(=O)O)c(=O)c2c1 (single isomer, unassigned) [Example 110, (+)-(1RS,2SR,5RS)-2-[(6-Methyl-4-oxo-1,2,3-benzotriazin-3(4H)-yl)methyl]-5-(4-{[3-(trifluoromethoxy)benzyl]oxy}benzoyl)cyclopentanecarboxylic acid] | 220 | 2400 | 1100 | 420
Cc1ccc2nnn(C[C@H]3CC[C@@H](C(=O)c4ccc(OCc5cccc(C(F)(F)F)c5)cc4)[C@@H]3C(=O)O)c(=O)c2c1 (single isomer, unassigned) [Example 101, (+)-(1RS,2SR,5RS)-2-[(6-Methyl-4-oxo-1,2,3-benzotriazin-3(4H)-yl)methyl]-5-(4-{[3-(trifluoromethyl)benzyl]oxy}benzoyl)cyclopentanecarboxylic acid] | 76 | 1300 | 490 | 120
Cc1ccc2nnn(C[C@@H]3CC[C@H](C(=O)c4ccc(OCc5ccccc5)cc4)[C@H]3C(=O)O)c(=O)c2c1 (racemic) [Example 91, (+/−)-(1RS,2RS,5SR)-2-[4-(Benzyloxy)benzoyl]-5-[(6-methyl-4-oxo-1,2,3-benzotriazin-3(4H)-yl)methyl]cyclopentanecarboxylic acid] | 22 | 400 | 95 | 26
O=C(O)[C@H]1[C@H](Cn2nnc3ccc(C(F)(F)F)cc3c2=O)CC[C@@H]1C(=O)c1ccc(OCCCc2ccccc2)cc1 (racemic) [Example 39, (+/−)-(1RS,2SR,5RS)-2-{[4-Oxo-6-(trifluoromethyl)-1,2,3-benzotriazin-3(4H)-yl]methyl}-5-[4-(3-phenylpropoxy)benzoyl]cyclopentanecarboxylic acid] | 230 | 9500 | 3800 | 640
COC(=O)Nc1cccc(COc2ccc(C(=O)[C@@H]3CC[C@H](Cn4nnc5ccc(C(F)(F)F)cc5c4=O)[C@H]3C(=O)O)cc2)c1 (stereo in doubt) [Example 31, (+)-(1RS,2RS,5SR)-2-[4-({3-[(Methoxycarbonyl)amino]benzyl}oxy)benzoyl]-5-{[4-oxo-6-(trifluoromethyl)-1,2,3-benzotriazin-3(4H)-yl]methyl}cyclopentanecarboxylic acid] | 44 | 3900 | 990 | 89
Cc1ccc2nnn(C[C@@H]3CC[C@H](C(=O)c4ccc(OCc5cccc(C(F)(F)F)c5)cc4)[C@H]3C(=O)O)c(=O)c2c1 (racemic) [Example 100, (+/−)-(1RS,2SR,5RS)-2-[(6-Methyl-4-oxo-1,2,3-benzotriazin-3(4H)-yl)methyl]-5-(4-{[3-(trifluoromethyl)benzyl]oxy}benzoyl)cyclopentanecarboxylic acid] | 150 | 1800 | 890 | 250
O=C(O)[C@H]1[C@H](Cn2nnc3ccccc3c2=O)CC[C@@H]1C(=O)c1ccc(OCc2cccc(Cl)c2)cc1 (racemic) [Example 2, (+/−)-(1RS,2RS,5SR)-2-{4-[(3-Chlorobenzyl)oxy]benzoyl}-5-[(4-oxo-1,2,3-benzotriazin-3(4H)-yl)methyl]cyclopentanecarboxylic acid] | 140 | 1300 | 400 | 1400
O=C(O)[C@H]1[C@H](Cn2nnc3ccc(C(F)(F)F)cc3c2=O)CC[C@@H]1C(=O)c1ccc(OCC2CCCCC2)cc1 (racemic) [Example 40, (+/−)-(1RS,2RS,5SR)-2-[4-(Cyclohexylmethoxy)benzoyl]-5-{[4-oxo-6-(trifluoromethyl)-1,2,3-benzotriazin-3(4H)-yl]methyl}cyclopentanecarboxylic acid] | 220 | 180 | 570 | 25
CCCCCOc1ccc(C(=O)[C@H]2CC[C@@H](Cn3nnc4ccc(C)cc4c3=O)[C@@H]2C(=O)O)cc1 (racemic) [Example 123, (+/−)-(1RS,2SR,5RS)-2-[(6-Methyl-4-oxo-1,2,3-benzotriazin-3(4H)-yl)methyl]-5-[4-(pentyloxy)benzoyl]cyclopentanecarboxylic acid] | 100 | 1800 | 370 | 91
O=C(O)[C@H]1[C@H](Cn2nnc3ccc(C(F)(F)F)cc3c2=O)CC[C@@H]1C(=O)c1ccc(SCc2ccc(Cl)c(Cl)c2)cc1 (racemic) [Example 79, (+/−)-(1RS,2RS,5SR)-2-{4-[(3,4-Dichlorobenzyl)sulphanyl]benzoyl}-5-{[4-oxo-6-(trifluoromethyl)-1,2,3-benzotriazin-3(4H)-yl]methyl}cyclopentanecarboxylic acid] | 1100 | 9300 | 5900 | 760
